Measurements reported in the NIST ThermoML archive (doi:10.1016/j.jct.2016.12.018).
Numbers after ± are expanded uncertainties.

Legend:
[1] = 293.15 K; 100 kPa; Liquid; Vibrating tube method
[2] = refractive index (Na D-line) (dimensionless); conditions: 293.15 K; 100 kPa; Liquid; Standard Abbe refractometry

Row | Structure (SMILES) | mass density [1] | refractive index [2]
1 | CC12CCC(CC1)C(C)(C)O2 [1,3,3-trimethyl-2-oxabicyclo[2.2.2]octane] | 924.84 ± 2 kg/m3 | 1.45756 ± 0.0011
2 | O [water] |  | 1.33299 ± 0.001
